Test results published in patent USRE48267E1, “Variants of C-type natriuretic peptide” (priority 2009, dated 2020).
Where a SMILES comes first, the peptide text is derived from it. Bridges are numbered along the chain shown (N, C = ends). The star is where a group is joined. MeO(CH2CH2O)23CH2CH2CO = COCCOCCOCCOCCOCCOCCOCCOCCOCCOCCOCCOCCOCCOCCOCCOCCOCCOCCOCCOCCOCCOCCOCCOCCC(=O)*

Legend:
Recombinant human NEP = Recombinant human NEP (Homo sapiens, UniProt P08473); experiment: in vitro NEP cleavage assay (disappearance of non-cleaved CNP variant)
Chain of Recombinant human NEP (P08473 whole entry): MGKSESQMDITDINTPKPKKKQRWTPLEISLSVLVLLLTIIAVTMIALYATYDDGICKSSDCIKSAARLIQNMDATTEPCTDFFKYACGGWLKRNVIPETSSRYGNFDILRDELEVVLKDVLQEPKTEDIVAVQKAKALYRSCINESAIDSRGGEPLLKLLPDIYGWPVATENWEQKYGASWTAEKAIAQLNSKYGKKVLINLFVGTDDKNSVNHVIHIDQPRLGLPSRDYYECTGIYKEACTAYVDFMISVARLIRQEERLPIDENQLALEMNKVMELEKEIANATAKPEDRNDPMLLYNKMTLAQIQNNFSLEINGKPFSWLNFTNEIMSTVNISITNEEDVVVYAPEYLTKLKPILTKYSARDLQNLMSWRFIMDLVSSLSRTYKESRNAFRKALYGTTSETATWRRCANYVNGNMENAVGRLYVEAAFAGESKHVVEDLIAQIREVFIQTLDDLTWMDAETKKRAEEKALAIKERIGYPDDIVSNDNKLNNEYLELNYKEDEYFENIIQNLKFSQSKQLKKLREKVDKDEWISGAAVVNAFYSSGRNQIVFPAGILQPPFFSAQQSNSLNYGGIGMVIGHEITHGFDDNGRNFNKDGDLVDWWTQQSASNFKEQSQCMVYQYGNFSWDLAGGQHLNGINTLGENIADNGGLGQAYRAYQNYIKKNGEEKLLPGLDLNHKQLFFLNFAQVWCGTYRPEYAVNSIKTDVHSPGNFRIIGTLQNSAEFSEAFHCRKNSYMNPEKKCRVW
Procedure, shortened: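 Recombinant human NEP (1 ug/mL final) incubated with 100 uM CNP variant in 0.1 M Tris, pH 7, at 37° C for various times, then quenched with EDTA (10 mM final) and heat. Samples reduced and analysed by HPLC and mass spectrometry. Half-life derived from loss of intact variant over time.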

[1] = test system: FGFR3^ach mouse femurs and tibias; experiment: mouse organ culture model of endochondral bone growth, FGFR3^ach bones
Method: To determine the efficacy of CNP variants in stimulating longitudinal bone growth, CNP variants were tested in a mouse organ culture model of endochondral bone growth in wild-type mice and transgenic mice having a G380R mutation in the human FGFR-3 gene (FGFR3^wt/Ach heterozygote) which represent a mouse model of mild achondroplasia. In brief, the pharmacological activity of wild-type CNP22 and CNP variants was compared in an organ culture model of embryonic or neonatal mouse tibiae, isolated from wild-type and FGFR3^wt/Ach littermates. Overall bone growth and histological changes within the growth plate were assessed. Conditioned culture medium is also assessed for biomarkers of intracellular signaling (cGMP), cartilage metabolism (type II collagen, other collagens, aggrecan chondroitin sulfate), bone metabolism (bone alkaline phosphatase, osteocalcin, type I collagen [C-telopeptide, N-telopeptide]), and inflammation (interleukin-1, interleukin 6, interleukin-11).
The efficacy of wtCNP22, CNP37 and PEO24-[…]22(K4R) (SEQ ID NO: 36) in stimulating longitudinal femoral growth was evaluated in the mouse organ culture model. For these experiments femora were isolated from 2-3 day old wild-type mice and cultured in alphaMEM supplemented with 0.2% BSA, 0.5 mM L-glutamine, 40 units penicillin/mL and 40 ug streptomycin/mL, for 8 days in the presence of vehicle, CNP22 or CNP variants. The treatment commenced at day 0 and was repeated every two days thereafter, as the medium was changed. Bones were measured prior to treatment and every two days thereafter, using a dissection microscope fitted with a 1 cm eye-piece reticule. Conditioned medium was used for biomarker analysis. At day 8 bones were fixed in 4% paraformaldehyde for 24 hr, decalcified in 5% formic acid for 24 hrs, dehydrated and embedded in paraffin. Bones were sectioned at 5 um (microns), which were then deparaffinized, rehydrated, and stained with Alcian Blue for 30 min (pH 2.5; MasterTech). Alcian Blue stains cartilage blue. Stained sections were visualized and photographed by brightfield microscopy. The thickness of the hypertrophic region of the growth plate cartilage was determined by image analysis.
Furthermore, ex vivo distribution of CNP37 in the growth plate of FGFR3^ach mouse tibia was evaluated. Bone samples were prepared as described above. Paraffin sections were cut and heat fixed for 1 hour at 60° C. Antigen retrieval with 1% hyaluronidase at 37° C. (30 minutes) was followed by a 1 hour serum block (10% Normal Goat Serum). […]
In addition to the distribution of CNP variants in the bone growth plate, the ex vivo effects of CNP37, CNP22 and vehicle on cells in the FGFR3^ach and wild-type growth plate, e.g., hypertrophic cell size and cellularity of proliferating zone, were also evaluated. […]

FGFR3^ach mice = experiment: bone growth biomarkers in FGFR3^ach mice; format: in vivo, mouse; conditions: 200 nmol/kg s.c. daily, Day 36
Method: Plasma and serum were collected during the study. Harvested plasma was stored with 10× protease inhibitor at −80° C. until analysis. cGMP levels were measured 15 minutes post-injection on Day 36 from K2-ETDA plasma collection tubes. Fragments of cleaved collagen type II (cartilage-associated biomarkers), osteocalcin (bone-associated biomarker), and IgG (relating to immunogenicity) were measured from terminal bleed serum at the end of the study (Day 37). cGMP was measured using a commercially available ELISA kit (Cayman Chemical Co., Cat. No. 581021.1), cleaved collagen type II (Cartilaps) was measured using a commercially available kit from Immunodiagnostic Systems (Cat. No. 3CAL4000), and osteocalcin was measured using a commercially available kit from Biomedical Technologies Inc. (Stoughton, Mass.).

## CC[C@H](C)[C@@H]1NC(=O)[C@H](CCCNC(=N)N)NC(=O)[C@H](CC(=O)O)NC(=O)[C@H](CC(C)C)NC(=O)[C@H](CCCCN)NC(=O)[C@H](CC(C)C)NC(=O)CNC(=O)[C@H](Cc2ccccc2)NC(=O)[C@@H](NC(=O)CNC(=O)[C@H](CCCNC(=N)N)NC(=O)[C@H](CO)NC(=O)[C@H](CC(C)C)NC(=O)CNC(=O)[C@H](CCCNC(=N)N)NC(=O)[C@H](CCCNC(=N)N)NC(=O)[C@H](CC(N)=O)NC(=O)[C@H](C)NC(=O)CNC(=O)CCOCCOCCOCCOCCOCCOCCOCCOCCOCCOCCOCCOCCOCCOCCOCCOCCOCCOCCOCCOCCOCCOCCOCCOC)CSSC[C@@H](C(=O)O)NC(=O)CNC(=O)[C@H](CC(C)C)NC(=O)CNC(=O)[C@H](CO)NC(=O)[C@H](CCSC)NC(=O)[C@H](CO)NC(=O)CNC1=O [PEO24-GANRR-CNP22(K4R)] ({MeO(CH2CH2O)23CH2CH2CO}-GANRRGLSRGCFGLKLDRIGSMSGLGC-OH; disulfide 11-27)
Recombinant human NEP
  resistance to NEP cleavage (in words): completely resistant to NEP cleavage over the assay period of 160 minutes
[1]; FGFR3^ach mouse femurs
  levels of cleaved collagen type II in conditioned media: significantly increased (p<0.05)
[1]; ex-planted FGFR3^ach mouse femurs and tibias, day 8
  cGMP levels in conditioned media: large increase (p<0.01)
[1]; treated every two days
  longitudinal growth of FGFR3^ach mouse femur ex vivo: increased the longitudinal growth of FGFR3^ach mouse femur compared to vehicle
  longitudinal growth of FGFR3^ach mouse tibia ex vivo: increased the longitudinal growth of the tibia compared to vehicle or CNP22
FGFR3^ach mice
  cGMP plasma levels 15 minutes post-injection, compared to vehicle: increase
